Measurements published in PubChem BioAssay (NCI).
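The compound was tested at five concentrations on cells cultured in 96-well plates, with a 48-hour exposure period. Abbreviation: GI50, concentration required for 50% inhibition of growth. The concentration for full growth arrest is given as TGI.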

Assays:
Assay in all cases: DTP human tumour cell line panel, 48 h
K-562 leukemia = tested on: K-562 leukemia
SW-620 colon = tested on: SW-620 colon
UACC-62 melanoma = tested on: UACC-62 melanoma
LOX IMVI melanoma = tested on: LOX IMVI melanoma
KM20L2 colon = tested on: KM20L2 colon
OVCAR-3 ovarian = tested on: OVCAR-3 ovarian
ACHN renal = tested on: ACHN renal
LXFL 529 NSCLC = tested on: LXFL 529 NSCLC
IGROV1 ovarian = tested on: IGROV1 ovarian
MOLT-4 leukemia = tested on: MOLT-4 leukemia

Compound | TGI (K-562 leukemia) | TGI (SW-620 colon) | TGI (UACC-62 melanoma) | TGI (LOX IMVI melanoma) | TGI (KM20L2 colon) | TGI (OVCAR-3 ovarian) | TGI (ACHN renal) | TGI (LXFL 529 NSCLC) | TGI (IGROV1 ovarian) | TGI (MOLT-4 leukemia) | GI50 (K-562 leukemia) | GI50 (UACC-62 melanoma) | GI50 (KM20L2 colon) | GI50 (OVCAR-3 ovarian) | GI50 (ACHN renal) | GI50 (LXFL 529 NSCLC) | GI50 (IGROV1 ovarian) | GI50 (MOLT-4 leukemia) | GI50 (SW-620 colon) | GI50 (LOX IMVI melanoma)
Nc1c2ccccc2nc2c(C(=O)Nc3ccc(S(N)(=O)=O)cc3)cccc12 | > 100 µM | > 100 µM | > 100 µM | > 100 µM | > 100 µM | > 100 µM | > 100 µM | > 100 µM | > 100 µM | 58.6 µM | – | – | – | – | – | – | – | – | – | –
COC(=O)C1CCc2nnc(-c3ccccc3)n21 (stereo not given) | > 100 µM | > 100 µM | > 100 µM | > 100 µM | > 100 µM | > 100 µM | > 100 µM | > 100 µM | > 100 µM | > 100 µM | – | – | – | – | – | – | – | – | – | –
c1ccc(OC2=NC3=S(S2)SC(Oc2ccccc2)=N3)cc1 | 38 µM | 35.2 µM | 37.6 µM | 43.4 µM | 45 µM | 28.6 µM | 42.5 µM | – | 44.7 µM | 31 µM | – | – | – | – | – | – | – | – | – | –
CCC[CH2][Sn]1([CH2]CCC)[S]CC[N]1S(=O)(=O)c1ccc(C)cc1 | 1.97 µM | – | 3.13 µM | – | 4.46 µM | 2.93 µM | 3.11 µM | 1.12 µM | 3.27 µM | 4.04 µM | 0.341 µM | 1.47 µM | 2.27 µM | 1.59 µM | 1.67 µM | 0.33 µM | 1.7 µM | 1.14 µM | – | –
CO[C@@]1(c2ccccc2)O[C@H]2OCCC2[C@H]1c1ccc(Cl)cc1 (stereo not given in full) | > 100 µM | > 100 µM | > 100 µM | 77.4 µM | > 100 µM | 49.7 µM | > 100 µM | > 100 µM | > 100 µM | 92.7 µM | – | – | – | – | – | – | – | – | – | –
CC(=O)[O-].N.N.N.N.[Co+3].[O-][Cl+3]([O-])([O-])[O-].[OH3+] | > 100 µM | > 100 µM | > 100 µM | > 100 µM | > 100 µM | > 100 µM | > 100 µM | > 100 µM | > 100 µM | > 100 µM | > 100 µM | > 100 µM | > 100 µM | > 100 µM | > 100 µM | > 100 µM | > 100 µM | > 100 µM | > 100 µM | > 100 µM
C=C1C(OC(C)=O)CC(OC(C)=O)C2(C)C(OC(C)=O)C(OC(C)=O)C3=C(C)C(OC(=O)/C=C/c4ccccc4)CC(C(OC(C)=O)C12)C3(C)C (stereo not given) | > 100 µM | > 100 µM | > 100 µM | > 100 µM | > 100 µM | – | > 100 µM | > 100 µM | > 100 µM | > 100 µM | – | – | – | – | – | – | – | – | – | –
COc1ccc2c(c1)CCc1c-2n[nH]c1-c1[nH]nc2c1CCc1cc(OC)ccc1-2 | > 100 µM | > 100 µM | > 100 µM | > 100 µM | > 100 µM | – | > 100 µM | > 100 µM | > 100 µM | > 100 µM | – | – | – | – | – | – | – | – | – | –
CC1=CCCC2C(C=O)(C1)CC(C)C2(CO)CC/C(=C/CO)CO (stereo not given) | > 100 µM | > 100 µM | > 100 µM | > 100 µM | – | > 100 µM | > 100 µM | > 100 µM | > 100 µM | > 100 µM | – | – | – | – | – | – | – | – | – | –
COc1cc(C(=O)c2cocc2C(=O)c2ccc3c(c2)OCO3)cc(OC)c1OC | > 94.9 µM | > 57.8 µM | > 47.3 µM | 30 µM | – | 8.15 µM | > 48.4 µM | > 31.6 µM | 48.5 µM | > 74.7 µM | – | – | – | – | – | – | – | – | – | –
COc1cc2c3c(n(CCCNCCCN)c(=O)c2cc1OC)-c1cc2c(cc1C3=O)OCO2 | 10.4 µM | 16.4 µM | 15.5 µM | 3.42 µM | – | 11.7 µM | 13.7 µM | – | 18.9 µM | 0.688 µM | 3.4 µM | 3.41 µM | – | 3.08 µM | 3.14 µM | – | 2.69 µM | 0.244 µM | 3.29 µM | 0.659 µM
CN(N)c1nc(N)c(C#N)c(C#N)c1C#N | > 10 µM | > 10 µM | > 10 µM | > 10 µM | – | > 10 µM | > 10 µM | – | > 10 µM | > 10 µM | – | – | – | – | – | – | – | – | – | –
CC(C)(C)OC(=O)Nc1ccc2c(c1)C(NC(=O)Nc1cccc(C#N)c1)CC(C)(C)O2 (stereo not given) | > 100 µM | > 100 µM | 17 µM | > 60.5 µM | – | > 100 µM | > 100 µM | – | > 100 µM | > 64.6 µM | 2.12 µM | 0.834 µM | – | 2.15 µM | 3.99 µM | – | 4.44 µM | 1.96 µM | 3.61 µM | 1.53 µM
O=C1N=C(Nc2nc(-c3csc(NC4=NC(=O)/C(=C\c5ccccc5)S4)n3)cs2)S/C1=C/c1ccccc1 | 48.9 µM | > 50 µM | 18.5 µM | > 50 µM | – | > 50 µM | 46.3 µM | – | > 50 µM | > 50 µM | 6.28 µM | 6.4 µM | – | 20.8 µM | 12.2 µM | – | 36.6 µM | 3.02 µM | 31.7 µM | > 50 µM
COc1ccc([C@@H]2OC(=O)C3C2C(=O)O[C@H]3c2ccc(OC)c(OC)c2)cc1OC (stereo not given in full) | > 100 µM | > 100 µM | > 100 µM | > 100 µM | > 100 µM | > 100 µM | > 100 µM | – | > 100 µM | > 100 µM | – | – | – | – | – | – | – | – | – | –
COc1ccc2c(c1)CN1CCc3c(cc(OC)c(OC)c3OC)C1C2 (stereo not given) | > 100 µM | > 100 µM | > 100 µM | – | > 100 µM | > 100 µM | > 100 µM | > 100 µM | > 100 µM | > 100 µM | – | – | – | – | – | – | – | – | – | –
O=C[C@@H](CO)O[C@H](C=O)n1cnc2c(=O)[nH]cnc21 | 496 µM | 868 µM | 1670 µM | 534 µM | 2130 µM | 1410 µM | 2050 µM | – | 1360 µM | 686 µM | – | – | – | – | – | – | – | – | – | –
N#CC1=C(N)NC(=O)NC12Nc1ccccc1N2 | > 100 µM | > 100 µM | > 100 µM | > 100 µM | – | > 100 µM | > 100 µM | – | > 100 µM | > 100 µM | > 100 µM | > 100 µM | – | > 100 µM | > 100 µM | – | > 100 µM | > 100 µM | > 100 µM | > 100 µM
